Experimental data published in publication PMC2912403 (Journal of medicinal chemistry, 2010).
Entries after “also recorded” stand apart in the source; their conditions may differ.

Tests used:
[1] = tested on: κ agonist U50,488-induced diuresis; assay: Antagonism of U50,488-induced diuresis in rats; format: in vivo, male Sprague-Dawley rats; details: for antagonism of U50,488-induced diuresis (urine output), week 0: s.c., first 5 h after dosing, U50,488 10 mg/kg; for antagonism of U50,488-induced diuresis (urine output), week 1: single s.c. dose at week 0, no further dosing
[2] = tested on: κ agonist U50,488-induced diuresis; details: antagonism of U50,488-induced diuresis; cited from earlier work

CC(C)[C@@H](CN1CC[C@@](C)(c2cccc(O)c2)[C@@H](C)C1)NC(=O)[C@@H]1CCc2cc(O)ccc2C1 [Compound 7a, 6-Hydroxy-1,2,3,4-tetrahydro-naphthalene-2(+)-carboxylic acid-{1-[4-(3-hydroxyphenyl)-(3R,4R)-trans-dimethyl-piperidinylmethyl]-(2S)-methylpropyl}amide]
antagonism of the diuretic effects of U50,488 at individual doses ([1]; 10 and 30 mg/kg s.c., week 0, Dunnett's test vs U50,488): significant antagonism | antagonism of U50,488-induced diuresis (urine output), week 0 [1]: antagonized selective κ agonist U50,488-induced diuresis; also recorded: dose-related antagonism | duration of activity as antagonist of U50,488-induced diuresis ([1]; single s.c. dose): less than 1 week | antagonism of U50,488-induced diuresis (urine output), week 1 [1]: did not show any κ antagonist activity after one week; also recorded: antagonism of U50,488 could no longer be detected

Oc1ccc2c3c1O[C@H]1c4[nH]c5c(c4C[C@@]4(O)[C@@H](C2)N(CC2CC2)CC[C@]314)C[C@@]1(O)[C@H]2Cc3ccc(O)c4c3[C@@]1(CCN2CC1CC1)[C@H]5O4 [Compound 1, norBNI]
duration of κ antagonist activity [2]: up to 3 weeks

CC(C)[C@@H](CN1CC[C@@](C)(c2cccc(O)c2)[C@@H](C)C1)NC(=O)[C@H]1Cc2ccc(O)cc2CN1 [Compound 3, (3R)-7-Hydroxy-N-[(1S)-1-{[(3R,4R)-4-(3-hydroxyphenyl)-3,4-dimethyl-1-piperidinyl]methyl}-2-methylpropyl)-1,2,3,4-tetrahydro-3-isoquinolinecarboxamide, reference compound]
antagonism of U50,488-induced diuresis (urine output), week 0 [1]: dose-related antagonism | antagonism of U50,488-induced diuresis (urine output), week 1 [1]: continued to show dose-related antagonism
